# In publication PMC6450673, “Targeted degradation of aberrant tau in frontotemporal dementia patient-derived neuronal cell models” (eLife, 2019):
# Where “and” joins values, the source holds several entries; their conditions need not be identical. Equal entries are not always repeated.
# Assays:
# [1] = test system: total tau (TAU5) in P301L neurons; assay: Western blot of total tau in P301L neurons; type: cell-based, human
# From the text: (§1) Cells from individuals carrying the tau risk variant A152T (c.1407G > A; NCBI RefSeq NM_001123066, rs143624519), the autosomal dominant mutation P301L (c.C1907T; NCBI NM_001123066, rs63751273), or age-matched non-mutant WT tau were employed in this study (Figure 2—source data 1). Dermal fibroblasts from the tau-P301L carrier and the healthy individual were generated from a skin biopsy from subjects within the MGH Frontotemporal Disorders Unit as part of the MGH Neurodegeneration Repository. Approval for human subjects’ work was obtained under a Partners/MGH-approved IRB Protocol (#2010P001611/MGH). Fibroblasts were reprogrammed into iPSCs, which were subsequently converted into cortical-enriched neural progenitor cells (NPCs) and differentiated into neuronal cells as previously described ([Almeida et al., 2012]; [Seo et al., 2017]; [Silva et al., 2016]; [Sheridan et al., 2011]) (Silva MC, Manuscript in preparation, 2019). Briefly, cells were cultured in 6-well (Fisher Scientific Corning, Pittsburgh, PA) or 96-well (Fisher Scientific Corning) plates coated with poly-ornithine (20 μg/mL in water, Sigma, St. Louis, MO) and laminin (5 μg/mL in PBS, Sigma) (POL-coated), in DMEM/F12-B27 media [70% DMEM (Gibco, Carlsbad, CA), 30% Ham’s-F12 (Fisher Scientific Corning), 2% B27 (Gibco), 1% penicillin-streptomycin (Gibco)]. Media was supplemented with EGF (20 ng/mL, Sigma), FGF (20 ng/mL, Stemgent, Cambridge, MA) and heparin (5 μg/mL, Sigma), to promote NPC proliferation and expansion. The growth factors were withdrawn to promote neural differentiation for 6 to 8 weeks, with half media change two times per week. Cell lines’ identity was authenticated by SANGER sequencing, karyotyping and ACGH analysis at different stages of culture maintenance from iPSC to NPC. All working cell lines tested negative for mycoplasma contamination.
# Compound treatment in six-well plates was performed in 2 mL media volume by removing 1 mL of conditioned media from the culture and adding 1 mL of new media pre-mixed with the compound at the appropriate 2X concentration, followed by incubation at 37°C for the designated period of time. […]
# Neurons differentiated in six-well plates for 6 weeks were washed and collected in PBS, lysed in RIPA buffer (Boston Bio-Products, Boston, MA) supplemented with 2% SDS (Sigma), protease inhibitors cocktail (Roche Complete Mini tablets, Mannheim, Germany), and phosphatase inhibitors cocktail (Sigma), followed by water sonication (Bransonic Ultrasonic Baths, Thomas Scientific, Danbury, CT) and 20,000 g centrifugation for 20 min. Supernatants were transferred to new tubes and total protein concentration was quantified with the Pierce BCA Protein Assay Kit (ThermoFisher Scientific, Carlsbad, CA). […]
# [2] = biological target: T1, P-tau S396 in non-mutant control iPSC-derived neurons (Homo sapiens, UniProt P10636); assay: P-Tau[pS396] ELISA in control neurons 1-3; type: cell-based; details: for S396 P-Tau (ELISA, relative to vehicle-treated): replicate values; for degradation of P-tau S396: 24 hr
# T1 construct: modeling pathogenic tau species without the need for overexpression of heterologous genes; endogenous in cells; host or cells: 8330-8-RC1, MGH2069-RC1, CTR2-L17-RC2 human iPSC-derived neurons
# From the text: as §1
# (§2) Compound treatment in six-well plates was performed in 2 mL media volume by removing 1 mL of conditioned media from the culture and adding 1 mL of new media pre-mixed with the compound at the appropriate 2X concentration, followed by incubation at 37°C for the designated period of time. Compound treatment in 96-well plates was performed in 100 μL media volume by adding compound directly to each well, followed by incubation at 37°C. When testing the effect of drug pre-treatment, the first compound was added as described above for the period of time needed, and then QC-01–175 was added directly onto the media without media exchange.
# (§3) Neuronal cells differentiated in six-well plate format for 6 weeks, were collected as described for western blotting, and lysed in ELISA-compatible buffer (Invitrogen FNN0011), supplemented with 1 mM PMSF, protease (Roche) and phosphatase (Sigma) inhibitors cocktails, for 30 min on ice with quick vortexing. Lysates were clarified by centrifugation at 13,000 rpm at 4°C for 10 min. The clear lysates were then transferred to new microfuge tubes and total protein concentration was quantified with the Pierce BCA Protein Assay Kit (ThermoFisher Scientific). ELISA assays were performed according to manufacturer instructions: Human Total Tau ELISA (Invitrogen Kit KHB0041/KHB0042) and P-Tau[pS396] Human ELISA Kit (Invitrogen Kit KHB7031). Data was plotted using GraphPad Prism version 8.0.
# [3] = test system: P-tau S396 in tau-P301L patient iPSC-derived neurons; assay: P-Tau[pS396] ELISA in P301L neurons; type: cell-based, human; details: for S396 P-Tau (ELISA, relative to vehicle-treated): 24 h, replicate values
# From the text: as §1, §2, §3
# [4] = biological target: T2, total tau (TAU5) in non-mutant control iPSC-derived neurons (Homo sapiens, UniProt P10636); assay: Human total tau ELISA in control neurons 1-3; type: cell-based; details: Control 1, 8330-8-RC1, 24h, replicate values
# T2 construct: modeling pathogenic tau species without the need for overexpression of heterologous genes; endogenous in cells; host or cells: 8330-8-RC1, MGH2069-RC1, CTR2-L17-RC2 human iPSC-derived neurons
# From the text: as §1, §2, §3
# T1 sequence (P10636 1-441 isoform P10636-8, stated change not applied): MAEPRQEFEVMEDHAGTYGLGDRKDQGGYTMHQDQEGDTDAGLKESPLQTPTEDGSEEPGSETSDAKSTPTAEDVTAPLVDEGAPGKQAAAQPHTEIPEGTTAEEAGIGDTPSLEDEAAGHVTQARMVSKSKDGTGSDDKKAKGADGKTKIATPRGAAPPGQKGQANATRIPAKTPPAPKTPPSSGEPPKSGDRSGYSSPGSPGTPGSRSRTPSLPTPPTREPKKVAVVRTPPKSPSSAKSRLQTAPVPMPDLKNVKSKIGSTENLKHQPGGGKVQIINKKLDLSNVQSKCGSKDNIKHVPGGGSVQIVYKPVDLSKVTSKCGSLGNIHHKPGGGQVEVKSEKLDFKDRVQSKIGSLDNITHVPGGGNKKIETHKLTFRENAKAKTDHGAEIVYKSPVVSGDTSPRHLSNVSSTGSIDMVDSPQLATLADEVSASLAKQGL
# T2 sequence (P10636 1-441 isoform P10636-8, stated change not applied): as above
compound,measurement,setting,value
O=C(CCc1ccc2c(c1)[nH]c1ccncc12)NCCOCCOCCNc1cccc2c1C(=O)N(C1CCC(=O)NC1=O)C2=O (stereo not shown) [QC-01–175],TAU5 (relative to vehicle),"[1]; QC-01-175 0.001 μM, 8 h treatment",0.95 and 0.90 and 0.56 and 0.94 and 0.68 and 0.86
same,TAU5 (relative to vehicle),"[1]; QC-01-175 1 μM, 4 h treatment",1.07 and 1.10 and 0.76 and 0.60 and 0.72 and 0.88
same,reduction in total tau,"[1]; western blot, 1 μM, 24 hr",70%
same,"S396 P-Tau (ELISA, relative to vehicle-treated)","[2]; Control 1, 8330-8-RC1, 24h, 0.001 μM",0.90 and 1.07 and 1.00 (2×)
same,"S396 P-Tau (ELISA, relative to vehicle-treated)","[2]; Control 1, 8330-8-RC1, 24h, 0.01 μM",0.97 (2×) and 0.67 and 0.90
same,"S396 P-Tau (ELISA, relative to vehicle-treated)","[2]; Control 1, 8330-8-RC1, 24h, 0.1 μM",0.71 and 0.84 and 1.21 and 0.90
same,"S396 P-Tau (ELISA, relative to vehicle-treated)","[2]; Control 1, 8330-8-RC1, 24h, 1 μM",0.85 and 1.01 and 0.80 and 0.95
same,"S396 P-Tau (ELISA, relative to vehicle-treated)","[2]; Control 1, 8330-8-RC1, 24h, 10 μM",0.55 and 0.65 and 0.77 and 0.86
same,"S396 P-Tau (ELISA, relative to vehicle-treated)","[2]; Control 2, MGH2069-RC1, 24h, 0.001 μM",0.71 and 0.83 and 1.11 and 0.91
same,"S396 P-Tau (ELISA, relative to vehicle-treated)","[2]; Control 2, MGH2069-RC1, 24h, 0.01 μM",0.89 and 1.05 and 1.10 and 0.99
same,"S396 P-Tau (ELISA, relative to vehicle-treated)","[2]; Control 2, MGH2069-RC1, 24h, 0.1 μM",0.85 and 1.00 and 0.99 and 1.30
same,"S396 P-Tau (ELISA, relative to vehicle-treated)","[2]; Control 2, MGH2069-RC1, 24h, 1 μM",1.14 (2×) and 1.04 and 0.97
same,"S396 P-Tau (ELISA, relative to vehicle-treated)","[2]; Control 2, MGH2069-RC1, 24h, 10 μM",0.95 and 1.12 and 0.78 and 0.91
same,"S396 P-Tau (ELISA, relative to vehicle-treated)","[2]; Control 3, CTR2-L17-RC2, 24h, 0.001 μM",0.94 and 0.77 and 0.84 and 1.00
same,"S396 P-Tau (ELISA, relative to vehicle-treated)","[2]; Control 3, CTR2-L17-RC2, 24h, 0.01 μM",1.06 and 1.13 and 1.00 and 0.97
same,"S396 P-Tau (ELISA, relative to vehicle-treated)","[2]; Control 3, CTR2-L17-RC2, 24h, 0.1 μM",0.95 and 0.78 and 1.00 and 0.90
same,"S396 P-Tau (ELISA, relative to vehicle-treated)","[2]; Control 3, CTR2-L17-RC2, 24h, 1 μM",1.03 and 0.85 and 0.87 and 0.72
same,"S396 P-Tau (ELISA, relative to vehicle-treated)","[2]; Control 3, CTR2-L17-RC2, 24h, 10 μM",0.70 and 0.95 and 0.89 and 0.74
same,degradation of P-tau S396,"[2]; all three control neurons, ELISA, concentrations up to 1 μM",No significant degradation
same,degradation of P-tau S396,"[2]; control line 1, 10 μM",~ 40%
same,degradation of P-tau S396,"[2]; control line 2, 10 μM",no significant effect
same,degradation of P-tau S396,"[2]; control line 3, 10 μM",no significant effect
same,"S396 P-Tau (ELISA, relative to vehicle-treated)",[3]; 0.001 μM compound,0.69 and 1.00 and 0.62 and 0.70 and 0.58 and 0.77 (2×) and 0.75 and 0.89 and 0.79 and 0.65 and 0.90
same,"S396 P-Tau (ELISA, relative to vehicle-treated)",[3]; 0.01 μM compound,0.69 and 0.67 and 0.61 and 0.70 and 0.98 and 0.73 and 0.71 and 0.65 and 0.75 and 0.62 and 0.97 and 0.81
same,"S396 P-Tau (ELISA, relative to vehicle-treated)",[3]; 0.05 μM compound,0.43 and 0.42 (2×) and 0.38 and 0.44 and 0.36 (2×) and 0.41 and 0.40 and 0.34 and 0.39 and 0.71
same,"S396 P-Tau (ELISA, relative to vehicle-treated)",[3]; 0.1 μM compound,0.43 (3×) and 0.41 and 0.38 and 0.36 (2×) and 0.42 and 0.39 and 0.44 (2×) and 0.34
same,"S396 P-Tau (ELISA, relative to vehicle-treated)",[3]; 0.5 μM compound,0.32 (2×) and 0.31 (3×) and 0.28 and 0.27 and 0.34 and 0.33 and 0.35 and 0.29 and 0.23
same,"S396 P-Tau (ELISA, relative to vehicle-treated)",[3]; 1 μM compound,0.34 (2×) and 0.33 (3×) and 0.30 (2×) and 0.35 (2×) and 0.29 (2×) and 0.49
same,"S396 P-Tau (ELISA, relative to vehicle-treated)",[3]; 10 μM compound,0.76 and 0.74 and 0.68 (2×) and 0.77 and 0.64 and 0.67 and 0.65 and 0.59 and 0.73 and 0.41 and 0.38
same,"Dmax, 4h, P-tau S396","[3]; ELISA, 4 hr, at 500 nM",80%
same,"Dmax, 24h, P-tau S396","[3]; ELISA, 24 hr, achieved at 1 μM",60%
same,"TAU5 (total tau by ELISA, relative to vehicle-treated)",[4]; 0.001 μM,1.03 and 0.98 and 1.20 and 1.01
same,"TAU5 (total tau by ELISA, relative to vehicle-treated)",[4]; 0.01 μM,0.91 and 0.87 and 0.97 and 1.00
same,"TAU5 (total tau by ELISA, relative to vehicle-treated)",[4]; 0.1 μM,0.93 and 1.07 and 0.97 and 0.84
